Common to all, as to test: NCI tumour cell line growth inhibition, 48 h
The subject of assay [1] is SK-MEL-2 melanoma.
The test system of assay [2] is SW-620 colon.
The test system of assay [3] is NCI/ADR-RES ovarian.
In assay [4] the test system is MCF7 breast.
Assay [5] concerns TK-10 renal.
For assay [6], the system named is HS 578T breast.
Assay [7] deals with 786-0 renal.
Assay [8] relates to NCI-H23 lung.
Assay [9] deals with MOLT-4 leukemia.
The test system of assay [10] is SR leukemia.
Assay [11] has as its system CCRF-CEM leukemia.

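How tested: cells in 96-well plates exposed to compound for 48 hours at five concentrations. TGI: total growth inhibition.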 Some results are limits rather than exact numbers.

As for `N#Cc1nc(CCC(c2nc(C#N)c(N)o2)N2C(=O)c3ccccc3C2=O)oc1N` (stereo unspecified), the TGI in [1], in assay [2], in assay [3], in [4], in assay [5] and in assay [6] was > 100 µM each time. Moreover, the TGI in [7], in assay [8], in assay [9] and in [10] was > 100 µM in each case.
In the case of `CCSc1nc(N)c2c(-c3ccccc3)c3c(nc2n1)CCC3`, the TGI in assay [2], in [3], in assay [4], in [5], in assay [11] and in assay [6] was > 100 µM in each case. Besides, the TGI in assay [8], in [9] and in [10] was > 100 µM throughout.
Take `O=[N+]([O-])c1c2nc3n(c2cc2c1nc1n2CCC1)CCC3`: the TGI in [2], in [3], in assay [4], in assay [5], in assay [11] and in assay [6] was > 100 µM each time. Moreover, the TGI in assay [7], in [8], in assay [9] and in assay [10] was > 100 µM in each case.
With `c1ccc(N=C2SC3=NCCN3C2=Nc2ccccc2)cc1`, the TGI in assay [1] is 76.5 µM; in assay [3] it was > 100 µM; in assay [4], 24.9 µM; in [11], 11.8 µM; in [6] it was > 100 µM; in [8] it was 52.9 µM. For the same molecule, the values for the TGI in [9] and in assay [10] were 77 µM and > 100 µM, respectively.
For `c1ccc(C(CCN2CC3CCC(CC3)C2)c2ccccc2)cc1`, the TGI in assay [1] is 37.8 µM; in assay [2] it was > 100 µM; in assay [3], 58.3 µM; in assay [4], 29 µM; in [5] it was 72.7 µM; in assay [6], 50.5 µM. Moreover, the TGI was determined as 36.1 µM in [7], 36.1 µM in [8], 42.6 µM in assay [9] and 46.4 µM in assay [10].
Regarding `O=C1CCCC2=C1CC1=C(CCCC1=O)N2c1ccccc1`, the TGI in assay [2], in [3], in [4], in assay [5], in assay [11] and in [6] was > 100 µM throughout. Also, the TGI in [7], in assay [8], in [9] and in assay [10] was > 100 µM in each case.
Turning to `COc1cc2c(cc1OCCCC(=O)Nc1cc(C(=O)NCCCN(C)C)n(C)n1)N=CC1CCCN1C2=O` (stereo unspecified), the TGI in assay [1] is 32.7 µM; in [2], > 25 µM; in [3], > 74.4 µM; in assay [4], > 80.7 µM; in assay [5], 14.9 µM; in assay [6], > 100 µM. For the same molecule, the TGI in assay [7] was > 23.5 µM; in [8], > 26.2 µM; in assay [9] it was 3.65 µM; in [10] it was 0.59 µM.
On to `O=[N+]([O-])c1ccc2c(c1)c(S(=O)(=O)O)cc1nonc12`, for which the TGI in assay [1], in assay [2], in assay [3], in [4], in assay [5] and in assay [6] was > 100 µM each time. Moreover, the TGI in assay [7], in assay [8], in assay [9] and in [10] was > 100 µM in each case.
Turning to `c1ccc(C2=NCCc3cc4c(cc32)OCO4)cc1`, the TGI in assay [1], in assay [2], in [3], in [4], in [5] and in assay [6] was > 100 µM throughout. Also, the TGI in assay [7], in [8] and in [10] was > 100 µM each time.
On to `CC1CCc2sc3[nH]c(=S)n(-c4ccccc4)c(=O)c3c2C1` (stereo unspecified), for which the TGI was 93.7 µM in [1]; > 100 µM in assay [2]; > 100 µM in assay [3]; > 100 µM in assay [4]; > 100 µM in [5]; > 100 µM in assay [6]. Also, the TGI in assay [7], in [8], in assay [9] and in assay [10] was > 100 µM each time.
On to `NS(=O)(=O)c1nnc(NS(=O)(=O)c2ccccc2C(=O)O)s1`, for which the TGI in assay [1], in [2], in assay [3], in assay [4], in assay [5] and in [6] was > 100 µM each time. Besides, the TGI in assay [7], in [8], in assay [9] and in assay [10] was > 100 µM each time.

Values taken from PubChem BioAssay (NCI).
